Assay results as given in patent US20060270685A1, “Anhydrous ziprasidone mesylate and a process for its preparation” (priority 2005, published 2006).
Structures can show the parent of a compound that is named as a salt.

Tests used:
[1] = when exposed to air (humidity); cited from earlier work
[2] = Water uptake (hygroscopicity) after exposure to 80% relative humidity, Karl Fisher and XRD; assay type: physicochemical
Description: The present invention further provides non hygroscopic anhydrous ziprasidone mesylate. Anhydrous ziprasidone mesylate is tested for water uptake after exposure to 80% relative humidity, at room temperature for 7 days, as summarized in the following table:
X-Ray powder diffraction data were obtained using a SCINTAG powder X-Ray diffractometer model X'TRA equipped with a solid state detector. Copper radiation of 1.5418 Å was used. A round aluminum sample holder with zero background was used. All peak positions are within ±0.2 degrees two theta. Karl Fisher analysis was performed according to the known art.
Anhydrous ziprasidone mesylate, having a tabular, and equant morphology was exposed to 80% humidity for at least 7 days at room temperature. Before the exposure, the water content was 0.5% as measured by Karl Fisher. After 7 days at 80% humidity at RT the sample contained 0.6% water as measured by Karl Fisher. Thus, there was an increase of 0.1% in the water content.

[3] = 80% RH, room temperature, 7 days

Crystal form (by XRD) [2, 3]: Anhydrous
water Content (By KF) [2, 3]: 0.6
change in the crystal form after the exposure ([2]; 80% humidity, at least 7 days, room temperature): No change in the crystal form
increase in the water content ([2]; 7 days at 80% humidity at RT vs before exposure): 0.1%
Crystal form (by XRD) ([2]; Initial, before exposure): Anhydrous
water Content (By KF) ([2]; Initial, before exposure): 0.5
water content as measured by Karl Fisher ([2]; after 7 days at 80% humidity at RT): 0.6%
water content as measured by Karl Fisher ([2]; before the exposure): 0.5%
SMILES: O=C1Cc2cc(CCN3CCN(c4nsc5ccccc45)CC3)c(Cl)cc2N1 [Anhydrous ziprasidone mesylate, ziprasidone mesylate]
hygroscopicity [1]: hygroscopic
